# In patent US20220175888A1, “CARBOXYLATED OSTEOCALCIN FOR TREATMENT OF AMYLOIDOSIS OR DISEASES ASSOCIATED WITH ABNORMAL PROTEIN FOLDING” (NATIONAL INSTITUTE OF IMMUNOLOGY, priority 2018, published 2022):
# Positions of bridges follow the written chain, without caps; N, C: chain ends. Non-standard residues stand in square brackets, D forms with d. No end group written: not given here. Gla = N[C@@H](CC(C(=O)O)C(=O)O)C(=O)O
# Key:
# TFEB = TFEB localization, transcription, protein expression and phosphorylation in astrocytes; format: cell-based, mouse; conditions: qPCR
# astrocytes = experiment: Lysotracker Red / HiLyte Abeta42 confocal microscopy in astrocytes; format: cell-based, mouse
# Description: This was further confirmed by surface staining of LRP1 and confocal microscopy (FIG. 4Gc). […] We next assessed how Abeta42 degradation occurs in Gla-OC exposed astrocytes. This was assessed by first evaluating the protein expression of LC3II by immunoblot analysis. Under normal conditions excess cargo in cell is cast-off by a cell through a recycling pathway called ‘autophagy’. The first step in autophagy is autophagosome formation wherein LC3I a cytosolic microtubule associated protein light chain 3 gets lipidated to form LC3II and recruits to autophagosomal membranes to allow cells to be LC3II*, a bona fide marker of autophagy and the first step towards autophagic lysosomal degradation. Another requirement for autophagosomes to be functionally relevant is downstream fusion with lysosomes. Under normal conditions, autophagosomes fuse with endosomes to form a higher order organelle called […] ‘amphisomes’, which then matures to form ‘autolysosomes or terminal lysosomes’. The efficiency of autophagosome/lysosome fusion was evaluated using Lysotracker Red, a fluorescent dye that preferentially accumulates in vesicles with acidic pH. The cells were treated with Lysotracker Red for 20 min and fixed using ice-cold methanol. After confocal microscopy (Ziess) the images were analyzed using Image J (NIH). The co-occurrence of the two signals is shown as Mander's overlap co-efficient (MOC) in the range of values 0 to 1. […] This dye accumulates in acidic intracellular organelles and its fluorescence increases with acidic environments and decreases with that of alkaline. The status of lysosome biogenesis was assessed by immunoblot or immunocytochemistry. […] To evaluate lysosome biogenesis the status of LAMP2 (by immunoblot), cathepsins (by immunoblot and colorimetric activity based assay) and TFEB or transcription factor EB (by immunocytochemistry for cellular localization of transcription, by PCR for evaluating gene transcription, by immunoblot for protein expression and by co-immunoprecipitation and immunoblot to check phosphorylation of TFEB) were evaluated. […]
# [1] = Gla-OC and Glu-OC in serum by ELISA; format: in vivo; conditions: 5×FAD Tg mice vs Tg controls, 300 ng per mouse per day
# Text: Two-month old 5×FAD Tg mice, both male as well as female were used for the study. For the purposes of this study wild type mice is referred to as Wt and 5×FAD mice is referred to as Tg. All experimental procedures in were approved by the Institutional Animal Ethics Committee. For experimentation, the mice were divided in below groups for treatment:
# 1. Wild type mice given vehicle (lx PBS or phosphate buffered saline; pH 7.4). 2. 5×FAD Transgenic mice given vehicle. 3. 5×FAD Transgenic mice given carboxylated osteocalcin (Gla-OC) subcutaneously at doses (300 ng-1000 ng per mouse of weight ranging from 25-28 g for 1 month). 4. Wild type mice given Gla-OC.
# Foremost the status of osteocalcin in long bones and serum of amyloid overexpressing 5×FAD Tg mice was evaluated. Thereafter, the effect of osteocalcin administration against amyloidosis in brain was tested. 1. The status of osteocalcin expression in bone was determined by evaluating the mRNA level of Bglap2 gene (gene that encodes osteocalcin in mouse) using quantitative PCR or qPCR. Long bones of mice like femur and tibia were harvested from mice after sacrifice. […] Following amplification, fold changes in gene expression versus β-actin (reference) analysis was determined using the […] (Livak) method. […] Carboxylated (Gla-OC) and undercarboxylated (Glu-OC) forms of osteocalcin in serum of mice was analyzed by ELISA. […]
molecule,measurement,setting,value
Cn1cnc(N)c2ncnc1-2 [3-methyl adenine],transcription of Tfeb gene in the presence of autophagy inhibitors,TFEB,increased
CCN(CC)CCCC(C)Nc1ccnc2cc(Cl)ccc12 (stereo not drawn) [chloroquine],transcription of Tfeb gene in the presence of autophagy inhibitors,TFEB,increased
"HiLyte Abeta42: fluorescent HiLyte labelled Abeta42 peptide added to astrocytes; challenge agent, Abeta42 alone comparator","number of Lysotracker Red puncta, lower as compared to basal",astrocytes; HiLyte Abeta42 treated cells without Gla-OC,4 fold
same,size of Lysotracker Red puncta,astrocytes; astrocyte cultures,< 0.25 μm^2
same,degree of co-localization of HiLyte Abeta42 with Lysotracker Red (Mander's overlap co-efficient),"astrocytes; range of values 0 to 1, Image J analysis",0.412
"YLYQWLGAPVPYPDPL[Gla]PRR[Gla]VC[Gla]LNPDCDELADHIGFQEAYRRFYGPV (disulfide 23-29) [Gla-OC, carboxylated osteocalcin]",level of Gla-OC in serum,[1],significantly increased (p<0.05)
